In patent US12030876B2, “Aryl hydrocarbon receptor (AHR) agonists and uses thereof” (Ikena Oncology, Inc., priority 2019, dated 2024):

Tests used:
[1] = target: T1, AHR (Homo sapiens, UniProt P35869); test: DRE-Luciferase Reporter Assay, HepG2 (agonist); assay type: cell-based; details: HepG2, Table 2; read-out: DRE-Luc HepG2 - Agonist: Average EC50
T1 construct: endogenous in cells; host or cells: HepG2 (human), transfected with a DRE-luciferase reporter only
T1 sequence (P35869 11-848): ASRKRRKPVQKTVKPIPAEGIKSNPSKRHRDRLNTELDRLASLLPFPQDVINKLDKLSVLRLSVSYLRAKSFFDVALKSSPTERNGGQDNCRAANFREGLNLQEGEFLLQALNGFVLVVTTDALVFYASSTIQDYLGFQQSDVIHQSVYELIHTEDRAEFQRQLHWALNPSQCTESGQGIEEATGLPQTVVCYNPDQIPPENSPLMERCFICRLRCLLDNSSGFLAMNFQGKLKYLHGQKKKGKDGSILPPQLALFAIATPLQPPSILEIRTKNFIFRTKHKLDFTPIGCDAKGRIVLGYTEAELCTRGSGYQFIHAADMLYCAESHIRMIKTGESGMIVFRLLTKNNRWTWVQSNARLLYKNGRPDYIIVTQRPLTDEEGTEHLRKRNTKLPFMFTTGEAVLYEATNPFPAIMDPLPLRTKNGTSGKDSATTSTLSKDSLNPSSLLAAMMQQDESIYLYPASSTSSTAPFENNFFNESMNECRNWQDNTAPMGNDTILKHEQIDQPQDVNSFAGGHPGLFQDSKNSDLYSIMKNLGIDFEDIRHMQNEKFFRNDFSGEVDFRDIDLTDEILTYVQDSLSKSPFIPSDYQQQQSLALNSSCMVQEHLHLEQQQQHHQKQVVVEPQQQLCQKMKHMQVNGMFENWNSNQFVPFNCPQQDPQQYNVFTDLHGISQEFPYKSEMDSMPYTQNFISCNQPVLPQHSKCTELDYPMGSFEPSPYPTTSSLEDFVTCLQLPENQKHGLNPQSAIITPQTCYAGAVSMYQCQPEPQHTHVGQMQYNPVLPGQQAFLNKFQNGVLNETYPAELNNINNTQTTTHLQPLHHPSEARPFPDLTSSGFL
Experimental: DRE-Luciferase Reporter Assay
AHR binds to Dioxin Responsive Elements (DRE) upstream of genes that it activates. One measure of AHR activity is activation of a reporter gene, such as luciferase, downstream of one or multiple DRE elements. Luciferase activity reflects activation and inhibition of AHR in the cells expressing this reporter.
Murine Hepa1-6 or Hepa-1c1c7 or other murine cell line with a DRE-luciferase reporter either stably or transiently transfected are plated in media in plates (96-well, 384-well or other plates) and incubated overnight at 37 C in a CO2 incubator. Likewise, human HepG2 or other human cell line with a DRE-luciferase reporter either stably or transiently transfected are plated in media in plates (96-well, 384-well or other plates) and incubated overnight at 37 C in a CO2 incubator.
(§1) The next day, an AHR agonist compound is added. Cells are incubated for 6, 16 or 24 hours or another time point and then lysed for determination of luciferase activity as a read-out of the AHR activation. Luciferase can be measured with a commercial kit such as the Promega Luciferase kit or any kit or reagents that provide the luciferin substrate for measuring luciferase activity. The level of luciferase with only activating ligand (e.g. such as TCDD, kynurenine, ITE (2-(1H-indole-3-ylcarbonyl)-4-thiazolecarboxylic methyl ester), VAF347, BNF (beta-naphthoflavone), ICZ (6-formylindolo(3,2-b) carbazole or other AHR ligands) added is the maximum signal while the luciferase with no ligand is the minimum signal. EC50s can be determined as the concentration which activates half of the maximum luciferase activity.

[2] = target: T2, AHR (Mus musculus, UniProt P30561); test: P450 CYP1A1 Luciferase Assay, Hepa1.6 (agonist); assay type: cell-based, murine; details: Hepa1.6, Table 2
T2 sequence (P30561 1-848 F348L/P471L): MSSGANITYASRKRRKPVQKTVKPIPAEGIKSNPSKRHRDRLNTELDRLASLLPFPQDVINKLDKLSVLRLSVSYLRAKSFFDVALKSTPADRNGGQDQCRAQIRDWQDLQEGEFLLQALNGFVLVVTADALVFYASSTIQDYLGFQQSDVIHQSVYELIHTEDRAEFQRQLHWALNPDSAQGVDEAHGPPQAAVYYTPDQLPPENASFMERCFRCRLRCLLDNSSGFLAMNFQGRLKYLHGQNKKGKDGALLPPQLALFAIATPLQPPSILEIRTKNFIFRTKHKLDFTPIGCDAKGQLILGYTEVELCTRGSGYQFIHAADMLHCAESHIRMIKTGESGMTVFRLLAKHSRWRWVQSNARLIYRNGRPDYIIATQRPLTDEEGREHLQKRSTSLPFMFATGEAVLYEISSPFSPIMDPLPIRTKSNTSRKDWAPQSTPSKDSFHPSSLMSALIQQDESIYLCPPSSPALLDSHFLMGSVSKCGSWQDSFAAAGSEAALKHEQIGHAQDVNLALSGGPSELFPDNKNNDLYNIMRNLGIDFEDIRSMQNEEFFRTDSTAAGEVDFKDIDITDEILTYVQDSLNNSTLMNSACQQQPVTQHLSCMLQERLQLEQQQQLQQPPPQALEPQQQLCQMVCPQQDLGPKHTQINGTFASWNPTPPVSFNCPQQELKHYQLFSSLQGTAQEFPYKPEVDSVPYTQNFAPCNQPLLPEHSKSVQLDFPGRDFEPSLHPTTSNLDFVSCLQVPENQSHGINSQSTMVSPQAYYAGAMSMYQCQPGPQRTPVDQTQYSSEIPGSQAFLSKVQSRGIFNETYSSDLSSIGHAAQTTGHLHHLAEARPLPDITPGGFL
Experimental: P450 CYP1A1 Luciferase Assay
AHR binds to Dioxin Responsive Elements (DRE) upstream of genes that it activates. One measure of AHR activity is P450 CYP1A1 protein levels determined by measuring CYP1A1 enzyme activity using a luminogenic CYP1A1 luciferin-based substrate. Luciferase activity will reflect CYP1A1 activity resulting from activation of AHR in the cells.
Murine Hepa1-6 or Hepa-1c1c7 or other murine cell line, human HepG2 or other human cell line are plated in media (96-well, 384-well or other plates) and incubated overnight at 37 C in a CO2 incubator.
as §1, with “lysed and incubated with a CYP1A1 luciferase-based substrate (e.g. Luciferin-CEE)” for “lysed”, “3, 6, or 12 hours of another time point. Determination” for “determination”, “CYP1A1 enzyme activity” for “the AHR activation. Luciferase”, “P450 Glo CYP1A1 detection reagent” for “Luciferase kit”, “provide” for “provide the luciferin substrate”

EC50 [1] [nM]	EC50 [2] [nM]	Compound
< 10	10 to 100	O=[N+]([O-])c1cccc(-c2csc(Nc3cccc(C(F)(F)F)c3)n2)c1 [Compound P-1]
< 10	> 1000	O=[N+]([O-])c1ccc(-c2csc(Nc3cccc(C(F)(F)F)c3)n2)cc1 [Compound P-3]
< 10	100 to 1000	FC(F)(F)c1cccc(Nc2nc(-c3cccc(Br)c3)cs2)c1 [Compound P-4]
< 10	> 1000	Clc1cccc(Nc2nc(-c3cccc(Cl)c3)cs2)c1 [Compound P-5]
< 10	> 1000	FC(F)(F)c1cccc(Nc2nc(-c3ccncc3)cs2)c1 [Compound P-6]
< 10	> 1000	Clc1cccc(-c2csc(Nc3ccccc3)n2)c1 [Compound P-7]
< 10	100 to 1000	FC(F)(F)c1cccc(Nc2nc(-c3cccnc3)cs2)c1 [Compound P-8]
< 10	> 1000	FC(F)(F)c1cccc(Nc2nc(-c3ccccn3)cs2)c1 [Compound P-9]
10 to 100	> 1000	FC(F)(F)c1cccc(Nc2nc(-c3ccc(Cl)cc3)cs2)c1 [Compound P-10]
10 to 100	> 1000	COc1cccc(-c2csc(Nc3cccc(C(F)(F)F)c3)n2)c1 [Compound P-11]
10 to 100	> 1000	Clc1cccc(-c2csc(Nc3cccnc3)n2)c1 [Compound P-12]
100 to 1000	> 1000	Clc1cccc(-c2csc(Nc3ccccn3)n2)c1 [Compound P-13]
< 10	10 to 100	C[N+](C)(C)CCNC(=O)N(c1cccc(C(F)(F)F)c1)c1nc(-c2cccc([N+](=O)[O-])c2)cs1 [I-1]
< 10	100 to 1000	C[N+](C)(CCNC(=O)N(c1cccc(C(F)(F)F)c1)c1nc(-c2cccc(Cl)c2)cs1)CCNC(=O)N(c1cccc(C(F)(F)F)c1)c1nc(-c2cccc(Cl)c2)cs1 [I-2]
< 10	100 to 1000	C[N+](C)(CCO)CCNC(=O)N(c1cccc(C(F)(F)F)c1)c1nc(-c2cccc(Cl)c2)cs1 [I-3]
< 10	10 to 100	C[N+](C)(CCO)CCNC(=O)N(c1cccc(C(F)(F)F)c1)c1nc(-c2cccc([N+](=O)[O-])c2)cs1 [I-4]
< 10	> 1000	FC(F)(F)c1cncc(Nc2nc(-c3cccc(Cl)c3)cs2)c1 [I-5]
< 10	> 1000	FC(F)(F)c1cccc(Nc2nc(-c3cccc(Cl)c3)cs2)n1 [I-6]
< 10	100 to 1000	O=[N+]([O-])c1cncc(-c2csc(Nc3cccc(C(F)(F)F)c3)n2)c1 [I-7]
< 10	> 1000	C[N+](C)(C)CCNC(=O)N(c1cccc(C(F)(F)F)c1)c1nc(-c2cccc(Cl)c2)cs1 [I-8]

EC50 [1] [nM]	EC50 [2] [nM]	Compound
< 10	10 to 100	[O-][n+]1cccc(-c2csc(Nc3cccc(C(F)(F)F)c3)n2)c1 [I-9]
< 10	100 to 1000	Cc1ccc(-c2csc(Nc3cccc(C(F)(F)F)c3)n2)cc1[N+](=O)[O-] [I-11]
< 10	> 1000	FC(F)(F)c1cccc(Nc2nc(-c3ccc(Cl)c(Cl)c3)cs2)c1 [I-12]
< 10	> 1000	FC(F)(F)Oc1cccc(Nc2nc(-c3cccc(Cl)c3)cs2)c1 [I-13]
< 10	10 to 100	N#Cc1cccc(-c2csc(Nc3cccc(C(F)(F)F)c3)n2)c1 [I-14]
< 10	> 1000	Cc1c(-c2csc(Nc3cccc(C(F)(F)F)c3)n2)cccc1[N+](=O)[O-] [I-15]
< 10	100 to 1000	C[N+](C)(CO)CCNC(=O)N(c1cccc(C(F)(F)F)c1)c1nc(-c2cccc(C#N)c2)cs1 [I-16]
< 10	100 to 1000	NC(=O)c1cncc(-c2csc(Nc3cccc(C(F)(F)F)c3)n2)c1 [I-17]
< 10	> 1000	Oc1cccc(-c2csc(Nc3cccc(C(F)(F)F)c3)n2)c1 [I-18]
< 10	> 1000	FC(F)(F)c1cccc(Nc2nc(-c3ccccc3Cl)cs2)c1 [I-19]
< 10	> 1000	C[N+]1(CCNC(=O)N(c2cccc(C(F)(F)F)c2)c2nc(-c3cccc(Cl)c3)cs2)CCC(O)CC1 (stereo not drawn) [I-20]
< 10	> 1000	FC(F)(F)c1ccc(Nc2nc(-c3cccc(Cl)c3)cs2)cc1 [I-21]
< 10	100 to 1000	NC(=O)c1cccc(-c2csc(Nc3cccc(C(F)(F)F)c3)n2)c1 [I-22]
< 10	> 1000	FC(F)(F)c1cccc(Nc2nc(-c3ccc4cc[nH]c4c3)cs2)c1 [I-23]
10 to 100	> 1000	C[N+](C)(C)CCCNC(=O)N(c1cccc(C(F)(F)F)c1)c1nc(-c2cccc(Cl)c2)cs1 [I-24]
10 to 100	> 1000	N#Cc1cccc(Nc2nc(-c3cccc(Cl)c3)cs2)c1 [I-25]
10 to 100	> 1000	C[N+](C)(CCO)CCCNC(=O)N(c1cccc(C(F)(F)F)c1)c1nc(-c2cccc(Cl)c2)cs1 [I-26]
10 to 100	> 1000	Cc1sc(Nc2cccc(C(F)(F)F)c2)nc1-c1cccc(Cl)c1 [I-27]
10 to 100	> 1000	C[N+]1(CCNC(=O)N(c2cccc(C(F)(F)F)c2)c2nc(-c3cccc(Cl)c3)cs2)CCCCC1 [I-28]
